Test results as given in patent US10745380B2, “Pyridine derivatives and their use in the treatment of cancer and hemoglobinopathies” (CTXT PTY LTD, priority 2016, dated 2020).
Counter-ions that a name gives are not always drawn.

What was measured:
[1] = test system: TE11 cell line; test: PRMT5 Biomarker Assay (symmetrical dimethylation of arginine, Histone H4 Arginine 3); format: cell-based; conditions: TE11 cells, 72 hours incubation, Di-Methyl Histone H4 Arginine 3 level
Method: Compounds of the invention may be tested for potency to inhibit symmetrical dimethylation of arginine in the following assay:
The cell line TE11 was seeded at a density of 6,000 cells per well in 96 well optical quality tissue culture plates in DME medium and 10% foetal bovine serum, and allowed to adhere for 5 hours under standard culture conditions (37 degree Celsius, 5% CO2). Compound dilutions prepared in DMSO were added to the medium, with negative control wells reserved for treatment with DMSO only and maximum inhibition controls receiving a potent PRMT5 inhibitor compound at 1 μM concentration. After incubation for 72 hours, the cells were fixed with 3.7% formaldehyde in PBS for 30 minutes at room temperature, washed with phosphate buffer saline and blocked with Odyssey blocking buffer (LI-COR, Lincoln, Nebr.). Rabbit anti-Di-Methyl Histone H4 Arginine 3 specific antibody (Epigentek) in Odyssey blocking buffer was added and incubated for 14 hours at 4 degree Celsius. […] Plates were washed and read on a PerkinElmer Envision 2103 in fluorescence intensity scanning mode (24 scans across the well area). […] Using a Columbus image analysis pipeline, individual nuclei were located by Hoechst 33342 stain and the methylation level was calculated from the Alexa647-related intensity in the same area. […]

[2] = target: Full-length PRMT5 enzyme co-expressed with His6-MEP50 (Homo sapiens (Human), UniProt O14744); test: PRMT5 Biochemical Assay; conditions: Transcreener EPIGEN methyltransferase assay, histone H4 derived peptide substrate, 4 hours at 37 degree Celsius
Method: Assays PRMT5 Biochemical Assay
Compounds of the invention may be tested for in vitro activity in the following assay: A histone H4 derived peptide is used as substrate (amino acid sequence: […]NH2). Full-length PRMT5 enzyme (NCBI Reference sequence NP_006100.2) was co-expressed with His6-MEP50 in insect cells and purified via Nickel immobilized metal affinity and gel filtration chromatography (“the enzyme”).
The 6 μL reactions are run in Greiner brand black 384-well low volume assay plates. All reactions contained assay buffer (phosphate buffered saline, 0.01% (v/v) Tween-20, 0.01% (w/v) albumin from chicken egg white, 1 mM Dithiothreitol, 1 μM peptide substrate, 1 μM S-Adenosyl methionine, and 15 ng/reaction enzyme, with the enzyme being omitted from negative control reactions. Compounds were added in a volume of 100 nL from dilution series prepared in DMSO, positive and negative control reactions receiving the same volume DMSO without compound. The plates were sealed with adhesive seals and incubated for 4 hours at 37 degree Celsius. Reaction progress was measured using the Transcreener™ EPIGEN methyltransferase assay (BellBrook Labs, Madison, Wis.) as recommended by the manufacturer. To each reaction 2 μL detection mix were added, containing coupling enzymes, fluorescence polarisation tracer, and AMP antibody. […]

Full-length PRMT5 enzyme co-expressed with His6-MEP50, sequence (O14744 whole entry): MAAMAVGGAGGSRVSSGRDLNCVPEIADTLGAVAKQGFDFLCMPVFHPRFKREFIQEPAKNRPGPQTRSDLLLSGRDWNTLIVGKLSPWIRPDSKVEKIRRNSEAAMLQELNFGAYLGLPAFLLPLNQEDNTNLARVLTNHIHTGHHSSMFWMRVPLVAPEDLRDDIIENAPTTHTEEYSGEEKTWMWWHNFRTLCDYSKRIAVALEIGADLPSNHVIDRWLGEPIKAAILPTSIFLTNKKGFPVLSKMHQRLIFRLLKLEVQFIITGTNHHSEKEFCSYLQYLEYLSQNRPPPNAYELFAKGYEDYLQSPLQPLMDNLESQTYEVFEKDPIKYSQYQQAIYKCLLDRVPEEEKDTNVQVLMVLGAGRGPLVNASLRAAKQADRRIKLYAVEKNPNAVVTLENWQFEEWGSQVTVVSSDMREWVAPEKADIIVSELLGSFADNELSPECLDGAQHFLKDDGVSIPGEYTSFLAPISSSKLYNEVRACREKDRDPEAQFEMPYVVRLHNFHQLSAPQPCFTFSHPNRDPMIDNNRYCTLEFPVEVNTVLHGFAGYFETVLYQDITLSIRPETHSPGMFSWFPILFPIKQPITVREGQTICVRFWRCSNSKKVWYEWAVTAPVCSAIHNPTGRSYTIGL
Full-length PRMT5 enzyme co-expressed with His6-MEP50, sequence (Q9BQA1 whole entry partner): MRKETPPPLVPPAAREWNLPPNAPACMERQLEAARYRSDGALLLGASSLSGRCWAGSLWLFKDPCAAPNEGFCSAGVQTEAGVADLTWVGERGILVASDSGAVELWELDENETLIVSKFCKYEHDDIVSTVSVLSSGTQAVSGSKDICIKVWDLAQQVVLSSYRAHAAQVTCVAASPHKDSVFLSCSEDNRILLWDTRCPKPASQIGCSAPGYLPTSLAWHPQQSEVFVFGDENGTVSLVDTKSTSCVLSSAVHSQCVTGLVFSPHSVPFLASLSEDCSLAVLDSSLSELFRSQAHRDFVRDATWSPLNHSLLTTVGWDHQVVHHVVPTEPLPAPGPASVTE

Row | IC50 ([1]; Homo sapiens, TE-11) | Compound | IC50 [1] | IC50 [2]
1 | – | CCOc1nc(OCc2ccccc2)ccc1C(=O)NC[C@@H](O)CNC1Cc2ccccc2C1 [Compound 1, (S)-6-(Benzyloxy)-N-(3-((2,3-dihydro-1H-inden-2-yl)amino)-2-hydroxypropyl)-2-ethoxy nicotin amide hydrochloride] | 79 nM | 86 nM
2 | 35 nM | CC(=O)N1CCC(Nc2nccc(C(=O)NC[C@@H](O)CNC3Cc4ccccc4C3)c2Cl)CC1 [Compound 2] | – | 105 nM
